Reference: US20070160657A1, “Targeting and intestinal-absorption controlled liposome having sugar chain and therapeutic drug for cancer and diagnostic drug containing the liposome” (National Institute of Advanced Industrial Science, priority 2003, published 2007)

Legend:
[1] = system: Collagen type II induced arthritis (CIA) model; assay: Determination of suitable dose of predonisolone phosphate in RA (CIA) mice, intravenous; assay type: in vivo, DBA/1J mouse
[2] = system: Collagen type II induced arthritis (CIA) model; assay: Treatment of RA (CIA) mice by oral administration; assay type: in vivo, DBA/1J mouse; settings: oral 3 times a week, Day 28 to 39; free Pred 100 μg (up to Day 32), liposomes 10 μg per administration
[3] = system: Collagen type II induced arthritis (CIA) model; assay: Treatment of RA (CIA) mice by intravenous administration; assay type: in vivo, DBA/1J mouse
[4] = blood; tail vein; amount administered 1.4 mg/kg; mice with EAT cancer
Protocol: Ehrlich ascites tumor (EAT) cells (about 2×10^7 cells) were implanted subcutaneously into the right femoral region in male ddY mice (7 weeks of age), and the 50 mice were used in this test after the tumor tissues grew to 50 to 100 cubic mm (after 6 to 8 days).
These mice with cancer were separated into two groups, 25 mice per each group, and the mice in each group were injected with a liposome solution encapsulating having glycolipid type sugar chain and doxorubicin or free doxorubicin solution at a dose of 0.2 ml in tail vein after the tumor implant. Then, at various time intervals, the doxorubicin concentration was measured by fluorescent method (470 nm) in blood and tumor tissue of 5 mice from each group.

KG-1a cells = assay: Cytotoxicity of doxorubicin HCl incorporated in liposome, WST-8, human leukemia cells; assay type: cell-based; settings: read-out: 50% growth inhibition concentration (IC50); KG-1a human leukemia cells, 72 hours
Protocol: (§1) KG-1a cells established from an acute myeloid leukemia patient were used as human leukemia cells. KG-1a cells were cultured in RPMI 1640 medium containing 10% fetal bovine serum (hereinafter FBS). MRC5 cells established from normal fibroblastic cells were used as normal human cells, and cultured in MEM medium containing 10% FBS. Cell suspensions were prepared from these cells at the concentration of 10^5 cells/ml and distributed to 96 well plates at 10^4 cells/well. After 24 hours, free doxorubicin HCl, which was not incorporated in liposome (hereinafter free Dox), doxorubicin HCl incorporated in liposome on which sugar was not bonded (hereinafter L-Dox) and doxorubicin HCl incorporated in liposome on which sialyl Lewis X tetrasaccharide was bonded (hereinafter L-Dox-SLX) were added to each well at appropriate concentrations. […] After removing the media containing the anticancer drug, replacing with 100 μl of RPMI 1640 or MEM containing 10% WST-8 and 10% FBS and incubating for 3 hours, the quantitation of cells were carried out by measuring absorbance at 485 nm (using the absorbance at 550 nm as a reference). Kiling activity (%)=100−(absorbance of the well of interest at 485 nm−absorbance of the same well at 550 nm)/(absorbance of the untreated well at 485 nm−absorbance of the untreated well at 550 nm)×100. […]

MRC5 cells = assay: Cytotoxicity of doxorubicin HCl incorporated in liposome, WST-8, normal human cells; assay type: cell-based; settings: read-out: 50% growth inhibition concentration (IC50), 72 hours
Protocol: as §1

SMILES	Inflammatory Activity (IA) versus Control ([1]; iv 250 μg per injection, 500 μg per week)	Inflammatory Activity (IA) versus Control ([1]; iv 500 μg per injection, 1000 μg per week)	Dose required to suppress the progression of inflammation ([1]; iv, more than 500 up to 1000 μg/week) [μg/week]	Inflammatory Activity (IA), comparison between groups [2]	Inflammatory Activity (IA) ([3]; Day 37 and afterward, iv 100 μg per injection, twice a week)	Inflammatory Activity (IA), comparison between groups ([3]; iv twice a week, free Pred 100 μg, liposomes 10 μg per injection)	AUC0→∞ [4] [µg·h/mL]	IC50 (KG-1a cells) [µM]	IC50 (MRC5 cells) [µM]
C[C@]12C=CC(=O)C=C1CC[C@@H]1[C@@H]2[C@@H](O)C[C@@]2(C)[C@H]1CC[C@]2(O)C(=O)COP(=O)(O)O [free Pred, predonisolone phosphate]	No significant difference	no increase in IA was observed and the progression of inflammation was suppressed	> 500	no significant difference in IA	about 50%	no clear difference from the Control group in IA			
COc1cccc2c1C(=O)c1c(O)c3c(c(O)c1C2=O)C[C@@](O)(C(=O)CO)C[C@@H]3O[C@H]1C[C@H](N)[C@H](O)[C@H](C)O1.Cl [free Dox, doxorubicin HCl]							130 ± 10	0.18	8.4
